Assay results from ChEMBL document CHEMBL1201862, “PubChem BioAssay data set” (2004).
Calls of active or inactive are those of the source. Rule as the data show it: actives have a measured EC50 and inactives only a lower limit.

Assays:
Streptococcus = experiment: GAS UMAA2166 growth inhibition – luminescence, BacTiterGlo, counter-screen for streptokinase expression inhibitor project, dose response (AID 1915); type: functional, organism-based;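 also: potency for reduction of bacterial viability or growth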
Streptokinase A = molecular target: T1, Streptokinase A (Streptococcus pyogenes serotype M1, UniProt P10520); experiment: viability-normalized secreted streptokinase activity reduction – plasminogen activation absorbance, OD405, dose response (AID 1914); type: functional, Streptococcus pyogenes M1 GAS;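 also: secreted streptokinase activity via plasminogen activation per viability signal from cell pellet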
T1 sequence (P10520 whole entry): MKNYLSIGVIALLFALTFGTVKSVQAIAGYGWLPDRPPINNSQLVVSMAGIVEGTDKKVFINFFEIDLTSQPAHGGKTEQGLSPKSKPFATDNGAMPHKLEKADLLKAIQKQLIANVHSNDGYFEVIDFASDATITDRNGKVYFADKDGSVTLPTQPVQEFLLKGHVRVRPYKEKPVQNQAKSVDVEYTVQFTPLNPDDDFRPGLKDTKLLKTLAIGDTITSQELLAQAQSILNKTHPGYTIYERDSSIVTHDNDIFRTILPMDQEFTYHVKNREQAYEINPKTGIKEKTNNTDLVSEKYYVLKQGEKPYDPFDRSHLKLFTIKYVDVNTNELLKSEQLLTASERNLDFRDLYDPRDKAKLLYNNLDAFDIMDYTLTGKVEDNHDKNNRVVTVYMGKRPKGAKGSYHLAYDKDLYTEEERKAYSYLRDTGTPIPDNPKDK

[1] = molecular target: T2, Heat shock factor protein 1 (Mus musculus, UniProt P38532); experiment: decrease of HSF1-responsive luciferase luminescence – cell-based, NIH3T3, dose retest, confirmation (AID 2382); type: functional;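 also: NIH3T3 fibroblasts with HSF1-driven luciferase reporter stressed by proteasome inhibitor MG132; luminescence from HSF1-driven luciferase expression after 8 hours of MG132 stress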
T2 sequence (P38532 whole entry): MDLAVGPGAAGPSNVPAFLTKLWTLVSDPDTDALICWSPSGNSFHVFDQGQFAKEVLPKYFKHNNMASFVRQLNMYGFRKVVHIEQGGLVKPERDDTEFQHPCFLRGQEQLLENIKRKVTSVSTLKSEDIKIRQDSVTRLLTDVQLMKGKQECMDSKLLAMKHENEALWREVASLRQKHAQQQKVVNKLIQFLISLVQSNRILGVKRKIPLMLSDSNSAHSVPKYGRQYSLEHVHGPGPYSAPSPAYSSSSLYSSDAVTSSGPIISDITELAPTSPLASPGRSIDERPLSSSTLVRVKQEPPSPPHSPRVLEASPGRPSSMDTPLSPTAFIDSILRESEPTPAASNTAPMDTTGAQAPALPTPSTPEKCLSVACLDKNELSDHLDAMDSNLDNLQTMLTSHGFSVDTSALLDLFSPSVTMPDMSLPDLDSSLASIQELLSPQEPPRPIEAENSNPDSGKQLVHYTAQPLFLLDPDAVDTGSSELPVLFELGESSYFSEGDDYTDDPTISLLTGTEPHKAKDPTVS

[2] = system: Streptococcus sp. 'group A'; experiment: Streptococcus pyogenes SK(-)GAS viability under kanamycin – luminescence, BacTiterGlo, confirmation, counter-screen for streptokinase expression inhibitor project, dose response (AID 1900); type: functional, organism-based

Structure (SMILES)	EC50 (Streptococcus)	EC50 (Streptokinase A)	EC50 [1]	EC50 [2]
CCOC(=O)N1CCN(C(=O)c2ccc3c(=O)n(CCC4=CCCCC4)c(=S)[nH]c3c2)CC1	> 150 µM (not active)	29.8 µM (active)	–	–
Cc1ccc(N(CC(=O)NCCSCc2ccco2)S(C)(=O)=O)cc1	–	–	> 195 µM (not active)	–
O=C(NCCC1CCCCN1S(=O)(=O)c1ccc(F)cc1)C(=O)Nc1ccccc1F (configuration not stated)	–	–	> 195 µM (not active)	–
Cc1cc(C)cc(NC(=O)N2CCN(Cc3ccc4c(c3)OCO4)CC2)c1	–	–	> 195 µM (not active)	–
COc1ccccc1N1CC(C)C(=O)NC1=S (configuration not stated)	–	–	> 195 µM (not active)	–
NCCCC[C@@H](C(=O)N1CCNCC1)n1cc([C@@H](N)CO)nn1	–	–	> 195 µM (not active)	–
CC(Sc1nc2cc([N+](=O)[O-])ccc2n1-c1cccc(C(F)(F)F)c1)C(=O)NC(N)=O (configuration not stated)	> 150 µM (not active)	> 150 µM (not active)	–	> 150 µM (not active)
c1ccc2c(c1)CC1(CCCCC1)n1nnnc1-2	–	–	> 195 µM (not active)	–
CCOC(=O)Cn1c(CN2CCN(c3cccc(Cl)c3)CC2)nc2c1c(=O)[nH]c(=O)n2C	–	–	> 195 µM (not active)	–
COC(=O)C1=C(C(=O)OC)[C@@H]2N(C)c3ccccc3[C@@]23C[C@@H](C(=O)OC)N(C(=O)CC(C)C)C3=N1	–	–	> 195 µM (not active)	–
COCC(C)NC(=O)c1ccc2nc(-c3ccccc3)c(-c3ccccc3)nc2c1 (configuration not stated)	–	–	> 195 µM (not active)	–
CCN(CC(=O)NCC1CCCO1)S(=O)(=O)c1ccc(Cl)cc1 (configuration not stated)	> 150 µM (not active)	> 150 µM (not active)	–	> 150 µM (not active)
CC12CC(c3ccccc3O1)C(C(=O)NCc1ccccc1)C(=O)N2 (configuration not stated)	–	–	> 195 µM (not active)	–
Cc1cccc(NC(=O)c2ccc(S(=O)(=O)N(C)CC3CCCO3)cc2)c1C (configuration not stated)	> 150 µM (not active)	> 150 µM (not active)	–	> 150 µM (not active)
CC1(C)Cc2nc3sc4c(OCc5ccccc5)ncnc4c3cc2CO1	11 µM (active)	> 150 µM (not active)	–	4.04 µM (active)
c1ccc(-n2nnnc2Oc2ccc(-c3nnco3)cc2)cc1	–	–	> 195 µM (not active)	–
Oc1ccccc1CNc1ccc(OC(F)(F)F)cc1	–	–	> 195 µM (not active)	–
Cc1ccccc1Nc1nc(N)nc(CN(C)Cc2ccccc2Cl)n1	> 150 µM (not active)	> 150 µM (not active)	–	> 150 µM (not active)
COc1cc2c3c(c1)/C(=C1/SC(=S)NC1=O)C(=O)N3C(C)(C)C=C2C	8.28 µM (active)	1.72 µM (active)	–	2.63 µM (active)
COc1ccc(C=O)cc1Cn1ccnc1C	–	–	> 195 µM (not active)	–
Cc1c(C(=O)OCC(=O)N2CC(C)OC(C)C2)oc2ccc(Br)cc12 (configuration not stated)	–	–	> 195 µM (not active)	–
CC(=O)c1cccc(NC(=O)CN2C(=O)c3ccccc3C2=O)c1	–	–	> 195 µM (not active)	–
CN1C(=O)/C(=C/c2ccc(C(F)(F)F)cc2)Sc2ccc(C(=O)N3CCN(c4ccccn4)CC3)cc21	12.5 µM (active)	> 150 µM (not active)	–	1.53 µM (active)
Cc1ccc(-c2cn(-c3ccccc3)c(S)n2)cc1C	–	–	> 195 µM (not active)	–
Cc1nc2c(-c3ccccc3)c(C)nn2c(O)c1Cc1ccccc1	18.5 µM (active)	> 50 µM (not active)	–	9.56 µM (active)
CCn1c(SCC(=O)Nc2oc(C)c3c(C)nnc(O)c23)nc2sc(C)c(C)c2c1=O	–	–	> 195 µM (not active)	–
FC(F)(F)c1ccccc1/C=N/n1c(S)nnc1C1CCCCC1	15.7 µM (active)	32.4 µM (inconclusive)	–	8.41 µM (active)
COc1ccc(CN2C(=O)c3ccccc3C(/C=N\OCc3ccc(C)cc3)C2=O)cc1 (configuration not stated)	11.2 µM (active)	> 150 µM (not active)	–	1.67 µM (active)
COc1cc(Cc2cc(N)nc(N)n2)cc(OC)c1OC	> 150 µM (not active)	> 150 µM (not active)	–	3.11 µM (active)
